# In publication PMC5862592, “CDK8/19 inhibition induces premature G1/S transition and ATR-dependent cell death in prostate cancer cells” (Oncotarget, 2018):
# Where two headings read alike, the source gives them in different places.
# Key:
# Assay in all cases: biochemical
# Parameters in all cases: KINOMEscan active site-directed competition binding assay (DiscoveRx), 456 kinases, per cent of control at 300 nM
# Conditions in all cases: read-out: Percent of Control (%)
# [1] = molecular target: T1, ABL1-phosphorylated (Homo sapiens, UniProt P00519)
# T1 construct: phosphorylated
# Outline: (§1)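 Single-concentration selectivity screen: compound 300 nmol/L; 456-kinase panel; active-site-directed competition binding read-out.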
# [2] = molecular target: ACVR1 (Homo sapiens, UniProt Q04771)
# Outline: as §1
# [3] = molecular target: T2, ADCK3 (Homo sapiens, UniProt Q8NI60)
# T2 construct: gene COQ8A
# Outline: as §1
# [4] = molecular target: AKT1 (Homo sapiens, UniProt P31749)
# Outline: as §1
# [5] = molecular target: T3, CDC2L2 (Homo sapiens, UniProt Q9UQ88)
# T3 construct: gene CDK11A
# Outline: as §1
# [6] = molecular target: CHEK1 (Homo sapiens, UniProt O14757)
# Outline: as §1
# [7] = molecular target: EGFR(T790M) (Homo sapiens, UniProt P00533, T790M)
# Outline: as §1
# [8] = molecular target: EIF2AK1 (Homo sapiens, UniProt Q9BQI3)
# Outline: as §1
# [9] = molecular target: T4, ERK5 (Homo sapiens, UniProt Q13164)
# T4 construct: gene MAPK7
# Outline: as §1
# [10] = molecular target: FGR (Homo sapiens, UniProt P09769)
# Outline: as §1
# [11] = molecular target: MAP3K4 (Homo sapiens, UniProt Q9Y6R4)
# Outline: as §1
# [12] = molecular target: T5, MKK7 (Homo sapiens, UniProt O14733)
# T5 construct: gene MAP2K7
# Outline: as §1
# [13] = molecular target: MUSK (Homo sapiens, UniProt O15146)
# Outline: as §1
# [14] = molecular target: NEK6 (Homo sapiens, UniProt Q9HC98)
# Outline: as §1
# [15] = molecular target: NEK9 (Homo sapiens, UniProt Q8TD19)
# Outline: as §1
# [16] = molecular target: T6, OSR1 (Homo sapiens, UniProt O95747)
# T6 construct: gene OXSR1
# Outline: as §1
# [17] = molecular target: PKN2 (Homo sapiens, UniProt Q16513)
# Outline: as §1
# [18] = molecular target: PLK4 (Homo sapiens, UniProt O00444)
# Outline: as §1
# [19] = molecular target: ROCK2 (Homo sapiens, UniProt O75116)
# Outline: as §1
# [20] = molecular target: TLK1 (Homo sapiens, UniProt Q9UKI8)
# Outline: as §1
# [21] = molecular target: T7, TRKA (Homo sapiens, UniProt P04629)
# T7 construct: gene NTRK1
# Outline: as §1
# [22] = molecular target: WEE2 (Homo sapiens, UniProt P0C1S8)
# Outline: as §1
# NEK9, sequence (Q8TD19 whole entry): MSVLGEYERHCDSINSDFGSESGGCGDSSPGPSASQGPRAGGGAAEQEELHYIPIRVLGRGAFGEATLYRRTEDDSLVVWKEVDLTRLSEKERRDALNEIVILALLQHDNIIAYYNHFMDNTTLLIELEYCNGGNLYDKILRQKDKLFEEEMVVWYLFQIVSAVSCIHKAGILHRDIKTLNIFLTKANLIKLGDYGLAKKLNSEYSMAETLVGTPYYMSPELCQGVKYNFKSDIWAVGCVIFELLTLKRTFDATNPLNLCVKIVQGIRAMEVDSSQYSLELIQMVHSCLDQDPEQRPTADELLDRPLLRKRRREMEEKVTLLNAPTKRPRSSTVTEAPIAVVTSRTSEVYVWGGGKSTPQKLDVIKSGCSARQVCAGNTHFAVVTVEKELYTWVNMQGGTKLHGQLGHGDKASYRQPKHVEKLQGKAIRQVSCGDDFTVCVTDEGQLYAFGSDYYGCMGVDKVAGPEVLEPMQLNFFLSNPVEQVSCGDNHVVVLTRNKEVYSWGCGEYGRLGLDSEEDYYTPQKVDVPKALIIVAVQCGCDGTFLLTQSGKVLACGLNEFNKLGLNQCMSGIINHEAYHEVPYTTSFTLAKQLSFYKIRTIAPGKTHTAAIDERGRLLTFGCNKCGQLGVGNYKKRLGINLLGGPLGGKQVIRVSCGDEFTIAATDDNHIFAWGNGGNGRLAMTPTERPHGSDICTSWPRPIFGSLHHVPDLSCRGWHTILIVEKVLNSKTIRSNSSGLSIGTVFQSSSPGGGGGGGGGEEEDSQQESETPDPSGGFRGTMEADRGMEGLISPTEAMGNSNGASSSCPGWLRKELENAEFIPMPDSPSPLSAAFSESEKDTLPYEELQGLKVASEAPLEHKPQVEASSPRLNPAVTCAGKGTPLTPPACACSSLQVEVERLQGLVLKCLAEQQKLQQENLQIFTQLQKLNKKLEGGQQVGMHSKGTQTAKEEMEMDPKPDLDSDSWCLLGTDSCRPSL
# T4 sequence (Q13164 whole entry): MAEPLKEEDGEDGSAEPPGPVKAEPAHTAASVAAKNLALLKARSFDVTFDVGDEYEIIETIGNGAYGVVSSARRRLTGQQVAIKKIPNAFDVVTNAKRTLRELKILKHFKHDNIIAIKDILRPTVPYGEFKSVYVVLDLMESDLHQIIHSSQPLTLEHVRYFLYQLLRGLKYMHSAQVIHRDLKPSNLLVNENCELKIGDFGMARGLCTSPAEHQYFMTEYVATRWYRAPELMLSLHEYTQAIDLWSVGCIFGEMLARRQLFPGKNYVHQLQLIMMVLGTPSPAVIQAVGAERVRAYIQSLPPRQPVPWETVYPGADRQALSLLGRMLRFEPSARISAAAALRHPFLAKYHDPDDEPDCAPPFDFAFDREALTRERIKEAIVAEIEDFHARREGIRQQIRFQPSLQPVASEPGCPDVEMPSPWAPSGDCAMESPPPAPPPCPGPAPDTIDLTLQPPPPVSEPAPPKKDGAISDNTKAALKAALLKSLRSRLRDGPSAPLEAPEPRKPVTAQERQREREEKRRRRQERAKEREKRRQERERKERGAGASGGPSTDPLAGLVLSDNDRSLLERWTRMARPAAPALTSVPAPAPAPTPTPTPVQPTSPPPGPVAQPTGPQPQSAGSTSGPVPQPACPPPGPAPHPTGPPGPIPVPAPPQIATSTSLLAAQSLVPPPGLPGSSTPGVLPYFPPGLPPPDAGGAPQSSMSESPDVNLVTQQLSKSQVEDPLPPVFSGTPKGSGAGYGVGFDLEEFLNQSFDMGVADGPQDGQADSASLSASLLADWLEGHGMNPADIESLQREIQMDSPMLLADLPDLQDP
# NEK6, sequence (Q9HC98 whole entry): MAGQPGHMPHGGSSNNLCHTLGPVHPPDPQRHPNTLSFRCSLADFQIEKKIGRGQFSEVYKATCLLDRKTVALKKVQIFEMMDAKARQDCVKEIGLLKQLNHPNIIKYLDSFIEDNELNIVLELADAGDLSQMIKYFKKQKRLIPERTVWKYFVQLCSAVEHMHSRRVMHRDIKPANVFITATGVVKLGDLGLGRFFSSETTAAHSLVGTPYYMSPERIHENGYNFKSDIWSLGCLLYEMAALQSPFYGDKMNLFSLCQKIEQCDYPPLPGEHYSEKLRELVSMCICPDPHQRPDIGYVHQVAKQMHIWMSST
# AKT1, sequence (P31749 whole entry): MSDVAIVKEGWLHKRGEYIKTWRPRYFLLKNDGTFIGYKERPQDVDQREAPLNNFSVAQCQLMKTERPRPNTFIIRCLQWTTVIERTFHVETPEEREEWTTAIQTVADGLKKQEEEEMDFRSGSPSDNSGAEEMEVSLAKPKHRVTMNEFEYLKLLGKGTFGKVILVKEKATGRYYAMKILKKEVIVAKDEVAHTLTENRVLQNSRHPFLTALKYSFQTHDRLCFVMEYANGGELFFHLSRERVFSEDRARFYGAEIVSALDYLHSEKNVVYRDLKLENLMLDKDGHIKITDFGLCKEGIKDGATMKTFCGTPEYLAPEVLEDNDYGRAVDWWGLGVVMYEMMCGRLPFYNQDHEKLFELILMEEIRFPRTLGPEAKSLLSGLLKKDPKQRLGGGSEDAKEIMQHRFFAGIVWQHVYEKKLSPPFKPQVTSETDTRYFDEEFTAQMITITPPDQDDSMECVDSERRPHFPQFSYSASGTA
# FGR, sequence (P09769 whole entry): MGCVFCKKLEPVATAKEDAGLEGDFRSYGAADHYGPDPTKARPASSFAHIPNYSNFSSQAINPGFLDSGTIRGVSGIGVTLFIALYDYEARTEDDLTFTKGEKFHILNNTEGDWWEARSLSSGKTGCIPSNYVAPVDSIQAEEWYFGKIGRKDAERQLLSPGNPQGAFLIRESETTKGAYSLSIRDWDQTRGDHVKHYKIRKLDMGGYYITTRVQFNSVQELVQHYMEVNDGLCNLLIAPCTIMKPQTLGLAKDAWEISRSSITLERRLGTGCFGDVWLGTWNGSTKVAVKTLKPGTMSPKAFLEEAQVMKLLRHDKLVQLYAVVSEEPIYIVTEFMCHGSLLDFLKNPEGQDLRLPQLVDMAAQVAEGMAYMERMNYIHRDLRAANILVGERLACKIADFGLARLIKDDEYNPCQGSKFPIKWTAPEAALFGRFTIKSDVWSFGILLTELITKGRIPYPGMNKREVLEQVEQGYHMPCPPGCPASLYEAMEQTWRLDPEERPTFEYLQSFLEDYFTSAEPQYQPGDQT
# T2 sequence (Q8NI60 whole entry): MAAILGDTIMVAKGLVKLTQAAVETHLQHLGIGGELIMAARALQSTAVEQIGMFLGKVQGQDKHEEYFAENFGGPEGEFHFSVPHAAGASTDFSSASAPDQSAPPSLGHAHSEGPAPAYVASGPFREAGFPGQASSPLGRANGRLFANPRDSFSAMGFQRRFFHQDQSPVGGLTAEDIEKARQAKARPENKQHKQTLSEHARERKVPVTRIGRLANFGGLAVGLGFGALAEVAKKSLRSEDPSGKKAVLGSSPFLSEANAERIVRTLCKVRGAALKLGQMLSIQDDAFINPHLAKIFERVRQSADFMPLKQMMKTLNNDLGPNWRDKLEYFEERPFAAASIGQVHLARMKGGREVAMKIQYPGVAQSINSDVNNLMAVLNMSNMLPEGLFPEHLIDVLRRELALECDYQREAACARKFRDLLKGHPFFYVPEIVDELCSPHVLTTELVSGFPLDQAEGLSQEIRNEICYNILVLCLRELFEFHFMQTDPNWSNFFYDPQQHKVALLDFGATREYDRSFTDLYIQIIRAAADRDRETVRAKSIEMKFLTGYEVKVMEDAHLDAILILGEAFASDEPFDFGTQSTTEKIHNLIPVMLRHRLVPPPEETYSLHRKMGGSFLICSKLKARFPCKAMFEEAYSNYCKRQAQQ
# ACVR1, sequence (Q04771 whole entry): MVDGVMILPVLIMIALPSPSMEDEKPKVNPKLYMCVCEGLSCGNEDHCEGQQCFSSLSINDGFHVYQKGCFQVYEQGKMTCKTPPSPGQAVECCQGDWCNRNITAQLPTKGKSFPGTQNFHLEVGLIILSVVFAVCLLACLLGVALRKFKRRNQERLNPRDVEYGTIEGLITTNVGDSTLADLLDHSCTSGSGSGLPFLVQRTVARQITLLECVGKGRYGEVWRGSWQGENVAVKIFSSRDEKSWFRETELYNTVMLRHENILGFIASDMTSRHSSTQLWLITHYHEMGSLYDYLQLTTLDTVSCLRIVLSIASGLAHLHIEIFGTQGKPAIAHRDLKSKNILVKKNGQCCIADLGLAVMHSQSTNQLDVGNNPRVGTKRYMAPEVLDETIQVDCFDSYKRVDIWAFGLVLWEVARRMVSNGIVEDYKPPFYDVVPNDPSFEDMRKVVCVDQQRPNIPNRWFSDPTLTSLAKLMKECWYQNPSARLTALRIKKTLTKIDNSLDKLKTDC
# CHEK1, sequence (O14757 whole entry): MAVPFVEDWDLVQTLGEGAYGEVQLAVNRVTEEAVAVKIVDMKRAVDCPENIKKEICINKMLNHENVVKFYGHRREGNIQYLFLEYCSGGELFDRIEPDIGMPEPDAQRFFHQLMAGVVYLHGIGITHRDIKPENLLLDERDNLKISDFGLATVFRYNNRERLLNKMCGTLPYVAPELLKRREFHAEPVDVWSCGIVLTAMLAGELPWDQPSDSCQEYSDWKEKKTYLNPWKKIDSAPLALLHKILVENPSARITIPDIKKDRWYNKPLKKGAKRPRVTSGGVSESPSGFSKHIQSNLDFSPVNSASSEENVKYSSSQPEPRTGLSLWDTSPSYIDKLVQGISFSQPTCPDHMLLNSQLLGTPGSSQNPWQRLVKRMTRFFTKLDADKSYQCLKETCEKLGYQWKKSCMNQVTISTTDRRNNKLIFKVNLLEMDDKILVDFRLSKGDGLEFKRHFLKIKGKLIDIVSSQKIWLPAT
structure (smiles),measurement,setting,value
"O=C(/C=C/c1cnccc1-c1ccc(F)cc1)Nc1ccc(CCc2nnco2)cc1 [T-418, (2E)-3-(4-(4-fluorophenyl)pyridin-3-yl)-N-(4-(2-(1,3,4-oxadiazol-2-yl)ethyl)phenyl)acrylamide]",remaining binding at 0.3 µM,[1]; sheet T-418,89%
same,remaining binding at 0.3 µM,[2]; sheet T-418,100%
same,remaining binding at 0.3 µM,[3]; sheet T-418,100%
same,remaining binding at 0.3 µM,[4]; sheet T-418,85%
same,remaining binding at 0.3 µM,[5]; sheet T-418,100%
same,remaining binding at 0.3 µM,[6]; sheet T-418,100%
same,remaining binding at 0.3 µM,[7]; sheet T-418,95%
same,remaining binding at 0.3 µM,[8]; sheet T-418,100%
same,remaining binding at 0.3 µM,[9]; sheet T-418,75%
same,remaining binding at 0.3 µM,[10]; sheet T-418,93%
same,remaining binding at 0.3 µM,[11]; sheet T-418,68%
same,remaining binding at 0.3 µM,[12]; sheet T-418,100%
same,remaining binding at 0.3 µM,[13]; sheet T-418,100%
same,remaining binding at 0.3 µM,[14]; sheet T-418,98%
same,remaining binding at 0.3 µM,[15]; sheet T-418,100%
same,remaining binding at 0.3 µM,[16]; sheet T-418,53%
same,remaining binding at 0.3 µM,[17]; sheet T-418,95%
same,remaining binding at 0.3 µM,[18]; sheet T-418,78%
same,remaining binding at 0.3 µM,[19]; sheet T-418,92%
same,remaining binding at 0.3 µM,[20]; sheet T-418,100%
same,remaining binding at 0.3 µM,[21]; sheet T-418,92%
same,remaining binding at 0.3 µM,[22]; sheet T-418,100%
"Cc1ncccc1Oc1sc(C(N)=O)c2c1-c1c(cnn1C)CC2 [T-474, 1-methyl-8-((2-methylpyridin-3-yl)oxy)-4,5-dihydro-1H-thieno[3,4-g]indazole-6-carboxamide]",remaining binding at 0.3 µM,[1],100%
same,remaining binding at 0.3 µM,[2],100%
same,remaining binding at 0.3 µM,[3],90%
same,remaining binding at 0.3 µM,[4],98%
same,remaining binding at 0.3 µM,[5],98%
same,remaining binding at 0.3 µM,[6],100%
same,remaining binding at 0.3 µM,[7],100%
same,remaining binding at 0.3 µM,[8],100%
same,remaining binding at 0.3 µM,[9],98%
same,remaining binding at 0.3 µM,[10],100%
same,remaining binding at 0.3 µM,[11],72%
same,remaining binding at 0.3 µM,[12],100%
same,remaining binding at 0.3 µM,[13],100%
same,remaining binding at 0.3 µM,[14],100%
same,remaining binding at 0.3 µM,[15],100%
same,remaining binding at 0.3 µM,[16],60%
same,remaining binding at 0.3 µM,[17],100%
same,remaining binding at 0.3 µM,[18],86%
same,remaining binding at 0.3 µM,[19],81%
same,remaining binding at 0.3 µM,[20],100%
same,remaining binding at 0.3 µM,[21],95%
same,remaining binding at 0.3 µM,[22],100%
